{
  "source": "BigSolDB 2.1",
  "data": [
    {"smiles": "Nc1ccc(S(=O)(=O)Nc2ncccn2)cc1", "values": [
      {"measurement": "solubility (mole fraction)", "setting": "in NMP, 278.15 K", "result": 0.0118},
      {"measurement": "solubility (mole fraction)", "setting": "in NMP, 283.15 K", "result": 0.0137},
      {"measurement": "solubility (mole fraction)", "setting": "in NMP, 288.15 K", "result": 0.0153},
      {"measurement": "solubility (mole fraction)", "setting": "in NMP, 293.15 K", "result": 0.018},
      {"measurement": "solubility (mole fraction)", "setting": "in NMP, 298.15 K", "result": 0.0194},
      {"measurement": "solubility (mole fraction)", "setting": "in NMP, 303.15 K", "result": 0.0224},
      {"measurement": "solubility (mole fraction)", "setting": "in NMP, 308.15 K", "result": 0.132},
      {"measurement": "solubility (mole fraction)", "setting": "in NMP, 313.15 K", "result": 0.137},
      {"measurement": "solubility (mole fraction)", "setting": "in water, 278.15 K", "result": "1.89e-06"},
      {"measurement": "solubility (mole fraction)", "setting": "in water, 283.15 K", "result": "2.51e-06"},
      {"measurement": "solubility (mole fraction)", "setting": "in water, 288.15 K", "result": "3.18e-06"},
      {"measurement": "solubility (mole fraction)", "setting": "in water, 293.15 K", "result": "3.96e-06"},
      {"measurement": "solubility (mole fraction)", "setting": "in water, 298.15 K", "result": "5.13e-06"},
      {"measurement": "solubility (mole fraction)", "setting": "in water, 303.15 K", "result": "6.32e-06"},
      {"measurement": "solubility (mole fraction)", "setting": "in water, 308.15 K", "result": "8.03e-06"},
      {"measurement": "solubility (mole fraction)", "setting": "in water, 313.15 K", "result": "9.98e-06"}
    ]}
  ]
}
